# Laboratory results from patent US20110280930A1, “PRODUCTS AND METHODS FOR STIMULATING AN IMMUNE RESPONSE” (priority 2008, published 2011).
# Tested on: DN32.D3 cells
# Assay: αGalCer presentation by B cells to iNKT cells (IL-2 production)
# Type: cell-based, mouse
# Conditions: MD4 B cells pulsed with particles or soluble αGalCer, then cocultured with DN32.D3 cells; IL-2 by ELISA
# Method: Splenic B cells were enriched by negative selection to >99% purity using B cell purification kit (Miltenyi Biotec). For analysis of αGalCer presentation, B cells were incubated overnight with particles containing αGalCer and/or HEL, extensively washed and cultured at 5×10^4 cells per well with the same number of DN32.D3 cells. NKT activation was assayed by measuring IL-2 production in the culture supernatant. For blocking experiments MD4 B cells were incubated with an antiCDld blocking antibody (25 μg/ml; clone 1B1) for 2 h before incubation with iNKT cells.
# Concentration of IL-2 in the supernatant of the cultures was determined by ELISA using the JES6-1A12 capture antibody (BD Pharmingen). Biotinylated JSE6-5H4 (BD Pharmingen) was used for detection. Specific antibody in mice sera were measured using plates coated with antigen (HEL, OVA or CGG) and serial dilutions of sera. Bound antibodies were detected with biotin-labelled goat anti-mouse IgM, IgG, IgG1, IgG2b, IgG2c or IgG3 (BD Pharmingen).
# We aspired to investigate the impact of targeting iNKT cell help to antigen specific B cells during the development of an immune response. […] Alexa-488-labeled-αGalCer was used to quantify the amount of αGalCer loaded on the beads, and we found this to be 150 ng per μl of beads (10^8 beads/μl). […]
structure (smiles),measurement,value
"CCCCCCCCCCCCCCCCCCCCCCCCCC(=O)N[C@@H](CO[C@H]1O[C@H](CO)[C@H](O)[C@H](O)[C@H]1O)[C@H](O)[C@H](O)CCCCCCCCCCCCCC [soluble αGalCer, α-galactosylceramide]",iNKT cell activation (IL-2 production),efficiently presented by B cells and induced IL-2 production
